From patent US20030166290A1, “Low formaldehyde producing blood diluent” (priority 2002, published 2003)

Test: Formaldehyde production in test blood diluents containing antimicrobial agents (EPA Method 8315A)
Format: physicochemical
Conditions: when employed in the blood diluent of the invention
Experimental: Diluent components into which the listed antimicrobials were added were:
Each test diluent was assayed for formaldehyde production within about two weeks from time of production to determine if formaldehyde is produced. Different lots of the final diluent formulation were monitored for formaldehyde concentration over a year's time. […] This method entails derivitizing the diluent sample with 2,4-dinitrophenylhydrazine to convert the carbonyl groups of aldehydes present to the hydrazones. Each carbonyl compound present in the sample forms a separate hydrazone derivative and these individual derivatives are extracted from the diluent solution using an organic solvent. The individual hydrazone derivatives are separated and quantified by HPLC (High Performance Liquid Chromatography).

SMILES: O=[N+]([O-])C1(Br)COCOC1 [5-bromo-5-nitro-1,3-dioxane]
- formaldehyde produced or contained: ≤ 1 ppm
